These results are taken from ChEMBL document CHEMBL3044825, “Synthesis and in vitro microbial activities of amides of pyridoquinolone” (2011).

Each structure is given as a SMILES string.

Assay type in all cases: functional
Holding throughout (details): read-out: IZ

One assay deals with Candida albicans. The assay is described as follows: Antifungal activity against Candida albicans at 100 ug/ml by cup-plate method.
Another assay concerns Bacillus subtilis. Description: Antibacterial activity against Bacillus subtilis at 100 ug/ml by cup plate method.
For another assay, the system named is Staphylococcus aureus. The assay is described as follows: Antibacterial activity against Staphylococcus aureus at 100 ug/ml by cup-plate method.
A further assay deals with Pseudomonas aeruginosa. The assay is described as follows: Antibacterial activity against Pseudomonas aeruginosa at 100 ug/ml by cup-plate method.
Another assay concerns Escherichia coli. The assay is described as follows: Antibacterial activity against Escherichia coli at 100 ug/ml by cup-plate method.

Consider `O=C(NC(=S)Nc1ccc([N+](=O)[O-])cc1)c1cn(CCO)c2c(cc(Cl)c3ncccc32)c1=O`, for which the zone of inhibition at 100 µg/mL turned out to be 5 mm in the assay with Candida albicans; 12 mm in the assay with Bacillus subtilis; 11 mm in the assay with Staphylococcus aureus; 9 mm with Pseudomonas aeruginosa; 10 mm with Escherichia coli.

For the compound `O=C(O)c1cn(C2CC2)c2cc(N3CCNCC3)c(F)cc2c1=O` [CIPROFLOXACIN], the zone of inhibition at 100 µg/mL with Bacillus subtilis stood at 16 mm; in the assay with Staphylococcus aureus it was 17 mm; with Pseudomonas aeruginosa, 17 mm.

With `COc1ccccc1NC(=S)NC(=O)c1cn(CCO)c2c(cc(Cl)c3ncccc32)c1=O`, the zone of inhibition at 100 µg/mL in the assay with Candida albicans is 0 mm; in the assay on Bacillus subtilis it was 6 mm; in the assay with Staphylococcus aureus it was 0 mm; in the assay with Pseudomonas aeruginosa it was 3 mm; in the assay with Escherichia coli, 5 mm.

`COc1ccccc1NC(=S)NC(=O)c1cn(CCO)c2c(cc(O)c3ncccc32)c1=O`: the zone of inhibition at 100 µg/mL with Candida albicans is 0 mm; in the assay on Bacillus subtilis, 0 mm; with Staphylococcus aureus, 4 mm; in the assay with Pseudomonas aeruginosa, 4 mm; with Escherichia coli, 0 mm.

With `COc1ccccc1NS(=O)(=O)c1ccc(NC(=O)c2cn(CCO)c3c(cc(Cl)c4ncccc43)c2=O)cc1`, the zone of inhibition at 100 µg/mL with Pseudomonas aeruginosa and in the assay on Escherichia coli was 5 mm each time.

Consider `O=C(Nc1cccc([N+](=O)[O-])c1)c1cn(CCO)c2c(cc(O)c3ncccc32)c1=O`, for which the zone of inhibition at 100 µg/mL in the assay with Candida albicans was determined as 2 mm; in the assay with Bacillus subtilis, 8 mm; in the assay with Staphylococcus aureus, 7 mm; in the assay on Pseudomonas aeruginosa, 10 mm; in the assay with Escherichia coli, 8 mm.

`O=C(Nc1ccc([N+](=O)[O-])cc1)c1cn(CCO)c2c(cc(O)c3ncccc32)c1=O`: the zone of inhibition at 100 µg/mL in the assay on Candida albicans came out at 0 mm; in the assay with Bacillus subtilis, 7 mm; with Staphylococcus aureus, 8 mm; in the assay with Pseudomonas aeruginosa, 6 mm; in the assay with Escherichia coli, 6 mm.

Turning to `O=C(Nc1ccc(S(=O)(=O)Nc2cccc(Cl)c2)cc1)c1cn(CCO)c2c(cc(O)c3ncccc32)c1=O`, the zone of inhibition at 100 µg/mL in the assay on Candida albicans was found to be 3 mm; in the assay on Bacillus subtilis, 9 mm; with Staphylococcus aureus, 8 mm; in the assay with Pseudomonas aeruginosa it was 8 mm; in the assay with Escherichia coli it was 9 mm.

Regarding `O=C(Nc1ccc(S(=O)(=O)Nc2ccccc2)cc1)c1cn(CCO)c2c(cc(O)c3ncccc32)c1=O`, the zone of inhibition at 100 µg/mL in the assay with Candida albicans was found to be 3 mm; in the assay with Bacillus subtilis, 8 mm; with Staphylococcus aureus, 9 mm; in the assay with Pseudomonas aeruginosa it was 10 mm; with Escherichia coli, 9 mm.

In the case of `Cc1ccc(C)c(NC(=O)c2cn(CCO)c3c(cc(Cl)c4ncccc43)c2=O)c1`, the zone of inhibition at 100 µg/mL was 0 mm in the assay with Candida albicans; 9 mm in the assay with Bacillus subtilis; 8 mm with Staphylococcus aureus; 8 mm with Pseudomonas aeruginosa; 10 mm in the assay with Escherichia coli.

With `Cc1ccccc1NS(=O)(=O)c1ccc(NC(=O)c2cn(CCO)c3c(cc(Cl)c4ncccc43)c2=O)cc1`, the zone of inhibition at 100 µg/mL was determined as 3 mm in the assay with Candida albicans; 10 mm in the assay on Bacillus subtilis; 9 mm in the assay on Staphylococcus aureus; 9 mm in the assay with Pseudomonas aeruginosa; 9 mm in the assay with Escherichia coli.

On to `Cc1cccc(NC(=S)NC(=O)c2cn(CCO)c3c(cc(O)c4ncccc43)c2=O)c1`, for which the zone of inhibition at 100 µg/mL with Candida albicans came out at 3 mm; with Bacillus subtilis, 8 mm; with Staphylococcus aureus, 9 mm; with Pseudomonas aeruginosa, 9 mm; with Escherichia coli, 9 mm.

On to `Cc1ccccc1NS(=O)(=O)c1ccc(NC(=O)c2cn(CCO)c3c(cc(O)c4ncccc43)c2=O)cc1`, for which the zone of inhibition at 100 µg/mL with Candida albicans was 0 mm; in the assay with Bacillus subtilis, 6 mm; with Staphylococcus aureus, 4 mm; in the assay on Pseudomonas aeruginosa, 4 mm; with Escherichia coli it was 0 mm.

As for `COc1ccc(NS(=O)(=O)c2ccc(NC(=O)c3cn(CCO)c4c(cc(Cl)c5ncccc54)c3=O)cc2)cc1`, the zone of inhibition at 100 µg/mL with Candida albicans came to 3 mm; in the assay on Bacillus subtilis it was 10 mm; in the assay on Staphylococcus aureus, 9 mm; in the assay with Pseudomonas aeruginosa, 10 mm; in the assay with Escherichia coli it was 9 mm.

As for `Cc1ccccc1NC(=S)NC(=O)c1cn(CCO)c2c(cc(Cl)c3ncccc32)c1=O`, the zone of inhibition at 100 µg/mL with Candida albicans came to 2 mm; with Bacillus subtilis, 8 mm; with Staphylococcus aureus it was 6 mm; in the assay on Pseudomonas aeruginosa, 4 mm; in the assay with Escherichia coli, 0 mm.

As for `O=C(Nc1ccccc1[N+](=O)[O-])c1cn(CCO)c2c(cc(Cl)c3ncccc32)c1=O`, the values for the zone of inhibition at 100 µg/mL in the assay with Candida albicans and in the assay with Bacillus subtilis were 4 mm and 10 mm, respectively.

In the case of `COc1ccc(NC(=O)c2cn(CCO)c3c(cc(Cl)c4ncccc43)c2=O)cc1`, the zone of inhibition at 100 µg/mL in the assay with Candida albicans came out at 2 mm; in the assay with Bacillus subtilis, 6 mm; in the assay on Staphylococcus aureus it was 6 mm; in the assay on Pseudomonas aeruginosa, 6 mm; in the assay with Escherichia coli it was 0 mm.

On to `O=C(Nc1ccc(S(=O)(=O)Nc2cccc([N+](=O)[O-])c2)cc1)c1cn(CCO)c2c(cc(Cl)c3ncccc32)c1=O`, for which the zone of inhibition at 100 µg/mL in the assay on Candida albicans turned out to be 2 mm; with Bacillus subtilis, 8 mm; in the assay with Staphylococcus aureus it was 6 mm; in the assay on Pseudomonas aeruginosa it was 5 mm; in the assay with Escherichia coli it was 7 mm.

For `O=C(Nc1ccccc1[N+](=O)[O-])c1cn(CCO)c2c(cc(O)c3ncccc32)c1=O`, the zone of inhibition at 100 µg/mL in the assay with Candida albicans was found to be 4 mm; with Bacillus subtilis, 11 mm; with Staphylococcus aureus it was 10 mm; in the assay with Pseudomonas aeruginosa, 9 mm; in the assay with Escherichia coli, 9 mm.

Consider `Cc1ccccc1NC(=S)NC(=O)c1cn(CCO)c2c(cc(O)c3ncccc32)c1=O`, for which the zone of inhibition at 100 µg/mL with Candida albicans is 0 mm; in the assay with Bacillus subtilis, 7 mm; in the assay on Staphylococcus aureus, 5 mm; in the assay on Pseudomonas aeruginosa, 0 mm; in the assay on Escherichia coli, 6 mm.

As for `COc1ccccc1NC(=O)c1cn(CCO)c2c(cc(O)c3ncccc32)c1=O`, the zone of inhibition at 100 µg/mL in the assay on Candida albicans stood at 1 mm; in the assay on Bacillus subtilis, 8 mm; in the assay with Staphylococcus aureus, 6 mm; in the assay on Pseudomonas aeruginosa, 0 mm; with Escherichia coli it was 6 mm.

Consider `O=C(Nc1cccc(Cl)c1)c1cn(CCO)c2c(cc(Cl)c3ncccc32)c1=O`, for which the zone of inhibition at 100 µg/mL with Candida albicans was 3 mm; with Bacillus subtilis, 9 mm; with Staphylococcus aureus, 8 mm; in the assay on Pseudomonas aeruginosa it was 7 mm; in the assay with Escherichia coli, 7 mm.

For the compound `O=C(Nc1ccccc1)c1cn(CCO)c2c(cc(O)c3ncccc32)c1=O`, the zone of inhibition at 100 µg/mL in the assay with Candida albicans is 1 mm; in the assay with Bacillus subtilis, 6 mm; with Staphylococcus aureus it was 7 mm; in the assay on Pseudomonas aeruginosa, 8 mm; with Escherichia coli, 8 mm.

Consider `Cc1ccc(NC(=S)NC(=O)c2cn(CCO)c3c(cc(Cl)c4ncccc43)c2=O)cc1`, for which the zone of inhibition at 100 µg/mL in the assay on Candida albicans stood at 0 mm; in the assay on Bacillus subtilis it was 6 mm; with Staphylococcus aureus, 6 mm; in the assay with Pseudomonas aeruginosa, 0 mm; in the assay with Escherichia coli it was 6 mm.

Regarding `O=C(Nc1ccc(S(=O)(=O)Nc2ccc([N+](=O)[O-])cc2)cc1)c1cn(CCO)c2c(cc(O)c3ncccc32)c1=O`, the zone of inhibition at 100 µg/mL in the assay on Candida albicans amounted to 4 mm; with Bacillus subtilis, 11 mm; in the assay with Staphylococcus aureus it was 10 mm; in the assay on Pseudomonas aeruginosa it was 10 mm; with Escherichia coli it was 12 mm.

For `O=C(Nc1ccc(Cl)cc1)c1cn(CCO)c2c(cc(Cl)c3ncccc32)c1=O`, the zone of inhibition at 100 µg/mL in the assay on Bacillus subtilis was 7 mm; with Pseudomonas aeruginosa, 6 mm; with Escherichia coli it was 6 mm.

Take `O=C(Nc1ccc([N+](=O)[O-])cc1)c1cn(CCO)c2c(cc(Cl)c3ncccc32)c1=O`: the values for the zone of inhibition at 100 µg/mL in the assay with Candida albicans and with Escherichia coli were 4 mm and 9 mm, respectively.

Turning to `C[C@@H]1[C@H](O)[C@@H](C)/C=C/C=C/C=C/C=C/C=C/C=C/C=C/[C@H](O[C@@H]2O[C@H](C)[C@@H](O)[C@H](N)[C@@H]2O)C[C@@H]2O[C@](O)(C[C@@H](O)C[C@@H](O)[C@H](O)CC[C@@H](O)C[C@@H](O)CC(=O)O[C@H]1C)C[C@H](O)[C@H]2C(=O)O` [AMPHOTERICIN B], the zone of inhibition at 100 µg/mL in the assay on Candida albicans is 9 mm.

Regarding `O=C(NC(=S)Nc1ccccc1[N+](=O)[O-])c1cn(CCO)c2c(cc(Cl)c3ncccc32)c1=O`, the zone of inhibition at 100 µg/mL with Candida albicans came to 4 mm; in the assay on Bacillus subtilis, 9 mm; in the assay on Escherichia coli, 10 mm.

For the compound `Cc1ccccc1NC(=O)c1cn(CCO)c2c(cc(O)c3ncccc32)c1=O`, the zone of inhibition at 100 µg/mL in the assay with Candida albicans is 0 mm; with Escherichia coli, 9 mm.

For `O=C(Nc1ccccc1)c1cn(CCO)c2c(cc(Cl)c3ncccc32)c1=O`, the zone of inhibition at 100 µg/mL was determined as 5 mm in the assay on Candida albicans, 12 mm with Staphylococcus aureus and 12 mm in the assay on Escherichia coli.

For the compound `O=C(Nc1ccc(Cl)cc1)c1cn(CCO)c2c(cc(O)c3ncccc32)c1=O`, the zone of inhibition at 100 µg/mL came to 5 mm in the assay with Candida albicans, 10 mm in the assay on Bacillus subtilis and 10 mm with Escherichia coli.

Consider `O=C(NC(=S)Nc1ccccc1)c1cn(CCO)c2c(cc(O)c3ncccc32)c1=O`, for which the figures for the zone of inhibition at 100 µg/mL in the assay with Candida albicans and with Pseudomonas aeruginosa were 4 mm and 10 mm, respectively.
